Literature values in patent US20220016128A1, “METHODS, SYSTEM, AND KIT FOR MONITORING, DIAGNOSING, AND TREATING IMPULSIVE AGGRESSION” (Supernus Pharmaceuticals, Inc., priority 2016, published 2022).

Assays:
[1] = oral dose
[2] = acidic to slightly acidic media versus neutral to slightly alkaline pH (physiologic pH range of the gastro-intestinal tract)

## CCc1c(C)[nH]c2c1C(=O)C(CN1CCOCC1)CC2 (centres unmarked) [molindone, 3-Ethyl-6,7-dihydro-2-methyl-5-(morpholinomethyl)indol-4(5H)-one]
[1]
  plasma elimination half-life: about 2 hours
[2]
  solubility: greater solubility in acidic to slightly acidic media than in neutral to slightly alkaline pH values
